Assay results from ChEMBL document CHEMBL2321708, “Modulators of the GPR119 Receptor for the Treatment of Metabolic Syndrome” (ACS Med Chem Lett, 2013).

How the values were obtained:
Type in all cases: functional
[1] = molecular target: T1, Glucose-dependent insulinotropic receptor (Homo sapiens, UniProt Q8TDV5); test: Agonist activity at human GPR119 by HTRF cAMP assay
T1 sequence (Q8TDV5 whole entry): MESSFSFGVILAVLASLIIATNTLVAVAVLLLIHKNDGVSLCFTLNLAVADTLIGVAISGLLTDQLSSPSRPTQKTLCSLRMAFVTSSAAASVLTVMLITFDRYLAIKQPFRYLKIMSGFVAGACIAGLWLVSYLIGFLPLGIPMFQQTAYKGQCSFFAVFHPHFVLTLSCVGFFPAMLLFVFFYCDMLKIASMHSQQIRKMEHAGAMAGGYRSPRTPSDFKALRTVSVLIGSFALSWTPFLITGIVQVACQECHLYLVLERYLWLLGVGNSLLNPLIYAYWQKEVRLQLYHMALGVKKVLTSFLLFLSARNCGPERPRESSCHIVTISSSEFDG

unidentified [2] = test: Effect on glucose homeostasis in diabetes model (unknown origin) assessed as release of GIP at 30 mg/kg, […] measured 60 mins post glucose challenge
[3] = Effect on glucose homeostasis in diabetes model (unknown origin) assessed as release of GIP at 3 mg/kg, […] measured 120 mins post glucose challenge
[4] = Effect on glucose homeostasis in diabetes model (unknown origin) assessed as release of GIP at 3 mg/kg, […] measured 40 mins post glucose challenge
unidentified [5] = test: Effect on glucose homeostasis in diabetes model (unknown origin) assessed as release of GIP at 30 mg/kg, […] measured 20 mins post glucose challenge
[6] = Effect on glucose homeostasis in diabetes model (unknown origin) assessed as release of GIP at 3 mg/kg, […] measured 30 mins before glucose challenge
[7] = Effect on glucose homeostasis in diabetes model (unknown origin) assessed as release of GIP at 3 mg/kg, […] measured 20 mins post glucose challenge
unidentified [8] = test: Effect on glucose homeostasis in diabetes model (unknown origin) assessed as release of GIP at 30 mg/kg, po administered intratracheally measured 30 mins before glucose challenge
[9] = Effect on glucose homeostasis in diabetes model (unknown origin) assessed as release of GIP at 3 mg/kg, […] measured 60 mins post glucose challenge
unidentified [10] = test: Effect on glucose homeostasis in diabetes model (unknown origin) assessed as release of GIP at 30 mg/kg, po administered intratracheally measured 120 mins post glucose challenge
unidentified [11] = test: Effect on glucose homeostasis in diabetes model (unknown origin) assessed as release of GIP at 30 mg/kg, […] measured 40 mins post glucose challenge

CC(C)(C)OC(=O)N1CCC(CO[C@H]2CC[C@H](c3cnc(S(C)(=O)=O)cn3)CC2)CC1
EC50 [1]: 0.707 µM

CC(C)c1noc(N2CCC(CO[C@H]3CC[C@H](c4ccc(S(C)(=O)=O)cc4F)CC3)CC2)n1
EC50 [1]: 0.038 µM

CC(C)(F)c1noc(N2CCC(COC3CC=C(c4ccc(S(C)(=O)=O)cc4)CC3)CC2)n1 (stereo not drawn)
EC50 [1]: 0.015 µM

CCc1cnc(N2CCC(CO[C@H]3CC[C@H](c4ccc(S(C)(=O)=O)cc4F)CC3)CC2)nc1
Activity (unidentified [2]): 193.2%
Activity [3]: 163.3%
Activity [4]: 250.2%
Activity (unidentified [5]): 163.5%
Activity [6]: 88.7%
Activity [7]: 201.3%
Activity (unidentified [8]): 72.2%
Activity [9]: 262.8%
Activity (unidentified [10]): 107.5%
Activity (unidentified [11]): 204.2%
